Structures are written as SMILES. Read-outs that look alike come from different tables or passages of the source.

Data set [1] deals with LNcap cells. As to the kind of experiment: Inhibitory effect on proliferation of LNcap cells (CCK-8, 72 h). It is filed as cell-based. The conditions noted are these: Homo sapiens, LNcap cells, CCK-8, read-out: LNcap cells IC50. Here is the method: A dish of LNcap cells (human prostate cancer cells with PTEN deficiency) growing at log phase and in good conditions were taken and digested for 3 min by using 1 mL of pancreatin, then the mixture was added with 4 mL of complete culture medium to terminate digestion, and the cells were added to a centrifuge tube. 20 μL of cells were taken and counted, the required number of cells (mL) was pipetted and centrifuged at 1200 rpm for 5 min, the supernatant was discarded, and an appropriate amount of plating medium (RPMI medium+5% FBS+1% sodium pyruvate+1% glutamine) was added to adjust the cell density to 3×10^4 cells/mL. The cells were seeded on a 96-well plate at 100 μL/well using a multi-channel pipette and cultured in a cell incubator at 37° C., 5% CO2 and saturated humidity. After incubation overnight, compounds were loaded using a nanoliter pipettor, 2 duplicate wells were set for each concentration, and cells without compound were used as negative controls. After 72 h, CCK-8 was added at 10 μL/well for incubation for 4 h, then absorbance was measured at 450 nm with an Envision plate reader, and inhibition rate was calculated. Inhibition rate (%)=(mean value of negative control group−mean value of experimental group)/(mean value of negative control group−mean value of blank group)×100%. A dose-response curve was fitted by four-parameter analysis, with the logarithm of compound concentration as abscissa and inhibition rate as ordinate, so that IC50 was calculated.

Data set [2] in a line: Pharmacokinetic evaluation in mice. It is filed as in vivo. Further details: Cl: unit not given here. The conditions noted are these: ICR mice; for AUC(0-inf) / AUC(0-t) / Cmax / Tmax / bioavailability / MRT last / Vd: mouse, plasma; for bioavailability: IG 10 mg/kg vs IV 1 mg/kg, read-out: Absolute bioavailability F %; for MRT last: read-out: MRT(0-t). Here is the method:
ICR mice, weight 18-22 g, after adaption for 3-5 days, were randomly divided into 4 groups of 9 mice, each group was intragastrically (IG) administered with compound 28 or compound 30 at a dose of 10 mg/kg, or intravenously (IV) administered with compound 28 or compound 30 at a dose of 1 mg/kg.
The animals to be tested (ICR mice) were fasted for 12 h before administration and food was provided 4 h after administration, and water was freely drunk before and after the experiment and during the experiment.
After intragastric administration, about 0.1 mL of blood was taken from eye sockets at 15 min, 30 min, 1 h, 2 h, 3 h, 4 h, 6 h, 8 h, 10 h, and 24 h; after intravenous injection, about 0.1 mL of blood was taken from eye sockets at 5 min, 10 min, 30 min, 1 h, 2 h, 4 h, 6 h, 8 h, 10 h, and 24 h; each mouse was collected at 3-4 time points and 3 mice were collected at each time point, whole blood was collected, placed in centrifuge tubes containing EDTA-K2, and stored at 4° C. within 1 h, and the plasma was separated off by centrifugation at 4° C. and 4000 rpm for 10 min. All the plasma samples were collected and immediately stored at −20° C. for testing. 30 μL of the plasma sample to be tested and a standard curve sample were pipetted and added with 300 μL of acetonitrile solution containing an internal standard (20 ng/mL diazepam), shaken and mixed well for 5 min, and centrifuged at 13,000 rpm for 10 min. 80 μL of supernatant was taken and diluted with 80 μL of ultrapure water. After being mixed well, 2 μL of the resulting sample was taken for liquid chromatography-mass determination, and a chromatogram was recorded.
Oral and intravenous exposure of the compound of the present application was evaluated by in vivo pharmacokinetic experiment in mice.

For data set [3], the target named is T1, AKT1 (S473) (Homo sapiens, UniProt P31749).
T1 construct: endogenous in cells; host or cells: LNcap cells
T1 sequence (P31749 whole entry): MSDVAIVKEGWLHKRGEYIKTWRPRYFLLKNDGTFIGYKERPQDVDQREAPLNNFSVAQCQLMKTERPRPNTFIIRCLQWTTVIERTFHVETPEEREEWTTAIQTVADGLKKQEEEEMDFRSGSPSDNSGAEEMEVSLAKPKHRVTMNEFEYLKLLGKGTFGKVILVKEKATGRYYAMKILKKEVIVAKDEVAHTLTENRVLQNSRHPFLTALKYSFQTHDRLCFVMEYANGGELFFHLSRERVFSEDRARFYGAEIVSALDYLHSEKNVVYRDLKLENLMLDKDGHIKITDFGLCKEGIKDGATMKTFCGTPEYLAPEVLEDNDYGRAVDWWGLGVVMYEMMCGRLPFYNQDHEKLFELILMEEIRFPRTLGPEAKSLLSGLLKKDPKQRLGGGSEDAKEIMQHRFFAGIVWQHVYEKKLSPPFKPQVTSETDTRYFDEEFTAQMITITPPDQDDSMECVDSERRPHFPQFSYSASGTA
Nature of the data set: Inhibitory effect on phosphorylation of LNcap cells AKT1 (S473). The data set is classed as cell-based. The conditions noted are these: 1 h incubation. On the procedure: LNcap cells AKT1 (S473) growing at log phase were taken, digested with 1 mL of pancreatin for 3 min, and added with 4 mL of complete medium to terminate digestion. The cells were added to a centrifuge tube. 20 μL of cells were taken and counted, the required number of cells (mL) was taken and centrifuged at 1200 rpm for 5 min, and a plating medium (2% FBS+phenol-free red 1640 base medium+1% sodium pyruvate+1% glutamine) was added to adjust the cell density to about 1×10E6 cells/mL. The cells were plated (96 wells) at the above cell density (100 μL/well), and cultured in a cell incubator at 37° C., 5% CO2 overnight; the next day, according to the plate distribution, the corresponding compound was sprayed using a nanoliter pipettor and incubated for 1 h at 37° C. in a cell incubator containing 5% CO2; the supernatant was discarded, and the plate was added with 40 μL of lysis buffer (1×) containing blocking buffer and incubated by shaking at room temperature for 30 min. After the mixture was mixed, 16 μL of lysate was transferred to another 384-well small-volume white plate. The plate was added with 4 μL of pre-mixed antibody (v/v) in assay buffer, covered, centrifuged to mix well, and incubated overnight at room temperature. The 665 nm/620 nm signal value was detected using a PE Envision multi-functional microplate reader, and IC50 was calculated by four-parameter fitting.

Turning to `CN1CC2(CCN(c3cccc(-c4ccc5nc(-c6cccnc6N)n(-c6ccc(C7(N)CCC7)cc6)c5n4)c3F)CC2)CC1=O` [Compound 45], the IC50 in data set [1] worked out at 1.7 nM. The compound further showed a t1/2z in data set [2] (IG 10 mg/kg) of 2.06 h. In data set [2] (IV 1 mg/kg), this compound registered a Cl of 0.23, a t1/2z of 1.159 h, an AUC(0-inf) of 4340 ng·h/mL and an exposure AUC(0-t) of 4240 ng·h/mL. In data set [2] (IV 1 mg/kg), the Vd amounted to 5.42 L/kg and the MRT last came to 1.18 h. Further, in data set [2] (po, IG 10 mg/kg), the AUC(0-inf) was 14500 ng·h/mL, the AUC(0-t) worked out at 14500 ng·h/mL, the Cmax was found to be 4020 ng/mL and the time to peak (Tmax) is 0.25 h. Besides, in data set [2] (po, IG 10 mg/kg), the MRT last is 3.95 h. Further, the bioavailability in data set [2] (po) amounted to 34.3%. For the same compound, in data set [3], half-maximal inhibition (IC50) was put at 7.7 nM.

For the compound `CC(=O)N1CC2(CCN(c3cccc(-c4ccc5nc(-c6cccnc6N)n(-c6ccc(C7(N)CCC7)cc6)c5n4)c3F)CC2)C1` [Compound 44], the IC50 in data set [1] amounted to 1.7 nM. The compound also had a t1/2z in data set [2] (IG 10 mg/kg) of 3.61 h. In data set [2] (IV 1 mg/kg), this compound had a Cl of 0.206, a t1/2z of 1.34 h, an area under the curve AUC(0-inf) of 4840 ng·h/mL and an AUC(0-t) of 4840 ng·h/mL. In addition, in data set [2] (IV 1 mg/kg), the Vd turned out to be 0.398 L/kg and the MRT last was 0.817 h. In data set [2] (po, IG 10 mg/kg), the AUC(0-inf) was found to be 25100 ng·h/mL, the exposure AUC(0-t) came out at 25000 ng·h/mL, the concentration peaked (Cmax) at 4960 ng/mL and the Tmax was found to be 2 h. The MRT last in data set [2] (po, IG 10 mg/kg) was found to be 3.58 h. For the same compound, in data set [2] (po), the bioavailability came out at 51.7%. The compound also showed an IC50 in data set [3] of 12 nM.

For orientation: IC50 means the concentration that inhibits the measured activity by half. A word on the AUC(0-inf): it is the area under the concentration-time curve extrapolated to infinity. What is called AUC(0-t) is the area under the concentration-time curve up to a stated or last time point. Broadly, the Cmax is the peak of the concentration-time curve. Broadly, the Tmax is the time at which the peak concentration occurs. A word on the bioavailability: it is the share of a dose that reaches the circulation, judged against a reference dose that is usually intravenous. One may read the Vd as the apparent volume that relates the amount in the body to the concentration in plasma or blood.

These data come from US20230357242A1, “COMPOUND AS AKT KINASE INHIBITOR” (CHIA TAI TIANQING PHARMACEUTICAL GROUP CO., LTD., priority 2020, published 2023).
